Columns and labels:
hPEPT (PEPT1, PEPT2) = assay: OTA uptake in PEPT1- and PEPT2-expressing MDCK-II cells; format: in vitro ADME, human; conditions: 10 μM OTA, pH 6.5, 5 min
SLC17A3 (NPT4) = conditions: OTA extracellular efflux; cited from earlier work
[1] = 0.5 mg/kg oral, rats, cited from earlier work
human MRP2 = molecular target: T1, human MRP2 (Homo sapiens, UniProt Q92887); assay: OTA uptake in MRP2-expressing Sf9 membrane vesicles; format: in vitro ADME; conditions: 10 μM OTA, 5 min
T1 construct: purchased BioIVT; host or cells: Sf9 cell-derived membrane vesicles
T1 sequence (Q92887 whole entry): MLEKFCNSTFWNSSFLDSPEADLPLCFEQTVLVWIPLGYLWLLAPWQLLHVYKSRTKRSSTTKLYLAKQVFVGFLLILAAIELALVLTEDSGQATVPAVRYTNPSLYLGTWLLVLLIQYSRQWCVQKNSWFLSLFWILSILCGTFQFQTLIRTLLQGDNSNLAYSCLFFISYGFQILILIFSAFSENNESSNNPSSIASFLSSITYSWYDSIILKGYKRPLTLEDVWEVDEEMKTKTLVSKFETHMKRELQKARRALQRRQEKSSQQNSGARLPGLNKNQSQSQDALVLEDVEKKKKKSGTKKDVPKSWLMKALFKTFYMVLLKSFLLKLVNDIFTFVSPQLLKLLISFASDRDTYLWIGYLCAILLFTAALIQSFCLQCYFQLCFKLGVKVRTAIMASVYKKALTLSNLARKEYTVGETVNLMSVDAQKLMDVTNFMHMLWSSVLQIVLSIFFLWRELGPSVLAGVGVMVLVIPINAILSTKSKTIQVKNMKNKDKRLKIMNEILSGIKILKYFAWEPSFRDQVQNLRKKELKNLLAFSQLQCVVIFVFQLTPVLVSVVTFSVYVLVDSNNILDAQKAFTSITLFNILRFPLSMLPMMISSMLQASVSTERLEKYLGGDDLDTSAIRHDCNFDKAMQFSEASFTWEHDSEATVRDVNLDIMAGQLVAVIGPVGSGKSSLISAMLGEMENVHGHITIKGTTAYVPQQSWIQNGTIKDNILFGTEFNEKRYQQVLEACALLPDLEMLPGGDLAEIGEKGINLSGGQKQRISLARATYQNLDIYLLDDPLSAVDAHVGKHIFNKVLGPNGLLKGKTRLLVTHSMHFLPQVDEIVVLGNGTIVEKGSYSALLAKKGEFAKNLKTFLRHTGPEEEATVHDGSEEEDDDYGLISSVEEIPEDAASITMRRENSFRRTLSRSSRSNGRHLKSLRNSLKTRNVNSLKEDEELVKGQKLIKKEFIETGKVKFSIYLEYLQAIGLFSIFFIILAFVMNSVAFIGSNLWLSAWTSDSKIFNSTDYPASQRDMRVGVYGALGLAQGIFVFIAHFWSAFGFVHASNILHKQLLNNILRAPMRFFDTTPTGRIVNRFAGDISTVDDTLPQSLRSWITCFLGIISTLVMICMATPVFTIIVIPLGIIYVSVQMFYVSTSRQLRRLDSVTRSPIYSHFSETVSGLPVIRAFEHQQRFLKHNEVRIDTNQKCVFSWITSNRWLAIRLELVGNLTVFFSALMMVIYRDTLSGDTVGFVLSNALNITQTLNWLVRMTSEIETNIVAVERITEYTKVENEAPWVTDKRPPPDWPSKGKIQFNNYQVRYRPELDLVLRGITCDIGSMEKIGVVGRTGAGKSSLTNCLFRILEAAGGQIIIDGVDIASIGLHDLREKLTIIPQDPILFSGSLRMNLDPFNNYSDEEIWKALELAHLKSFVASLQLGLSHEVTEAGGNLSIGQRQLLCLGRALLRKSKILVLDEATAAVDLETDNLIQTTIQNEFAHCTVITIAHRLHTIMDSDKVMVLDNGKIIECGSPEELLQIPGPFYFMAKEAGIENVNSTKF
Experimental: The following experiments were conducted at BioIVT.

[2] = single fasted volunteer, microdose of radioactive OTA in ethanol, within 8 h, not absolute bioavailability; cited from earlier work
MRP2 = conditions: read-out: IC50, inhibition of MRP2-mediated p-aminohippurate efflux; cited from earlier work
OAT3 = molecular target: T2, OAT3 (Homo sapiens, UniProt Q8TCC7); assay: OTA uptake in OAT3-overexpressing HEK293 cells (screen and kinetics)
T2 sequence (Q8TCC7 1-542): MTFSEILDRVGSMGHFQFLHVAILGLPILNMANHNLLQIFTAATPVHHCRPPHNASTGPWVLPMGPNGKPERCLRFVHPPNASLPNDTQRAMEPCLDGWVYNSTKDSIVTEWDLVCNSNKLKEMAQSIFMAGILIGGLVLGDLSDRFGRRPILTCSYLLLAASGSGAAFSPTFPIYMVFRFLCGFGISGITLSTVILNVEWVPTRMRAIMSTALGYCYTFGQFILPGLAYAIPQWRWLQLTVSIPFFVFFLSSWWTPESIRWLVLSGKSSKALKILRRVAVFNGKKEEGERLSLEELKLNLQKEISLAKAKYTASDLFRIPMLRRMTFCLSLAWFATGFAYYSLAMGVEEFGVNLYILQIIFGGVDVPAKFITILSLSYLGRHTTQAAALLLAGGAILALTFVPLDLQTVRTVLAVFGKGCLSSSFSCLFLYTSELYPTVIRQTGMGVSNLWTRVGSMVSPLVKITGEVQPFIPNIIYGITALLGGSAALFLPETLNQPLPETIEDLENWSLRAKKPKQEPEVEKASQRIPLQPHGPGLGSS
Experimental: (§1) The following experiments were conducted at the University of Washington. Mock HEK293 cells and transporter-overexpressing HEK293 cells (i.e., OAT1–4, OCT2, MATE1/2K, OCTN1, OATP1A2), mock CHO cells, and OCTN2-overexpressing CHO cells were plated in 96 well plates coated with 0.05 mg/mL of poly-D-lysine in 50 μL DPBS at a density of 800,000 cells/mL and grown until reaching over 90% of confluence. […] For uptake experiments in MATE1- and MATE2-K-expressing HEK293 cells, the pH of the incubation buffer was adjusted to 8.0 to facilitate substrate uptake. For uptake experiments in OATP1A2-expressing and OAT4-expressing HEK293 cells, the pH of the incubation buffer was adjusted to 6.5 to mimic pH of the urinary filtrate, as these are apical transporters. The incubation buffer was kept at pH 7.4 for all other transporters. […] Uptake was quenched by removing the substrates/inhibitors and washing the cells 3 times with 200 μL of ice-cold HBSS++. […] The precipitated protein was allowed to dry and subsequently solubilized overnight in 1M NaOH, neutralized with 1 M HCl the next day, and measured by BCA assay.
(§2) All cellular-based assays were conducted in technical triplicate across three independent experiments. […] This cutoff was defined a priori. […] Jnet was then treated as the initial uptake rate, and Km and Vmax values were obtained by fitting the Michaelis–Menten equation to the substrate-concentration data as described above. Intrinsic clearance (CLint) was then calculated by the formula, CLint=Vmax/Km using Vmax and Km values as calculated above. […] At steady-state, the mass balance for intracellular concentrations assuming symmetric passive permeabilities (Papical = Pbasal, taken as Papp from mock assays) and apical efflux gives: Ccell= Cbasal/1+ ke/Pa where Cbasal is the concentration in the basal chamber and ke is the first-order elimination with respect to BCRP. Because the asymmetric efflux ratio ERa is defined as: ERa=1+ ke/Pa

OATP1A2 = molecular target: T3, OATP1A2 (Homo sapiens, UniProt P46721); assay: OTA uptake in OATP1A2-overexpressing HEK293 cells (screen and kinetics)
T3 sequence (P46721 1-670): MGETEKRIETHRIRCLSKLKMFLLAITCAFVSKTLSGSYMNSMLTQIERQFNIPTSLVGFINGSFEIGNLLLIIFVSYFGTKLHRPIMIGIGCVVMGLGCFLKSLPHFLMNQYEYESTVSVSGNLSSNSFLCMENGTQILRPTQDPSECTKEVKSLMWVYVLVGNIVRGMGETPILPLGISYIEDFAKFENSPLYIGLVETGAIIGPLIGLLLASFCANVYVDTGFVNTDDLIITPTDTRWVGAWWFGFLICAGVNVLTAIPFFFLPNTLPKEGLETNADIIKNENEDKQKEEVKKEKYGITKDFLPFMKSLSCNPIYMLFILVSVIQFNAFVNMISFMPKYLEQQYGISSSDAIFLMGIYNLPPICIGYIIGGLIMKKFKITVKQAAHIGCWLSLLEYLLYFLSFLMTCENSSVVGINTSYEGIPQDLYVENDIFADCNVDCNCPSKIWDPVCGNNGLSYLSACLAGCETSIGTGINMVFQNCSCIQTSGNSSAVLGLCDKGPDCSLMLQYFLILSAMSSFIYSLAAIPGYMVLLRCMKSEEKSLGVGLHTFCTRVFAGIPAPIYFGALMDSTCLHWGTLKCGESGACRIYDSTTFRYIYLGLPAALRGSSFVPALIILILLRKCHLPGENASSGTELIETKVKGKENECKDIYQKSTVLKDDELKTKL
Experimental: as §1, §2

C[C@@H]1Cc2c(Cl)cc(C(=O)N[C@@H](Cc3ccccc3)C(=O)O)c(O)c2C(=O)O1 [OTA, Ochratoxin A]
hPEPT-mediated transport of OTA (hPEPT (PEPT1, PEPT2)): did not observe any hPEPT-mediated transport | Km (SLC17A3 (NPT4)): 803 µM | OTA accumulated in kidney tissue ([1]; after 24 h): over 400 pmol/g | dose recovered in urine and feces ([1]; after 96 h): 15% | MRP2-mediated OTA transport (human MRP2): no MRP2-mediated OTA transport | percentage of administered radioactivity detected in plasma [2]: ~ 93% | IC50 (MRP2): 58 µM | Vmax (OAT3; HEK293, 5 min, 37 °C, pH 7.4, mock-corrected): 141.4 ± 30.3 pmol/mg/min | microsomal CLint (OAT3; human, other cell line, pH 7.4): 56.1 ± 6.3 µL/min/mg | Km at 5 min (OAT3; human, pH 7.4): 2.58 ± 0.83 µM | Vmax (OATP1A2; HEK293, 5 min, 37 °C, pH 6.5, mock-corrected): 801.0 ± 133.9 pmol/mg/min | microsomal CLint (OATP1A2; human, other cell line, pH 6.5): 21.6 ± 2.3 µL/min/mg | Km at 5 min (OATP1A2; human, pH 6.5): 37.3 ± 6.2 µM
